Our source for the inhibition and X1(50) (mole fraction) values is ChEMBL document CHEMBL1127695, “Rational modification of human synovial fluid phospholipase A2 inhibitors” (J Med Chem, 1994).

Assay [1] concerns the target Phospholipase A2, major isoenzyme (Sus scrofa) (UniProt P00592). As to the kind of experiment: Tested for the inhibition of porcine pancreatic enzyme. The following applies: concentration not given here.
Assay [2] addresses T1, Phospholipase A2, membrane associated (Homo sapiens) (UniProt P14555).
T1 sequence (whole entry): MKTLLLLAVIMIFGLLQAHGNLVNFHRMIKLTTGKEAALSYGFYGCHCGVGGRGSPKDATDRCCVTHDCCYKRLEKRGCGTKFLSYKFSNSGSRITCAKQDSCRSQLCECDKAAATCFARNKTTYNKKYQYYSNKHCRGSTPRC
The experiment in a line: Tested for the inhibition of human synovial fluid enzyme phospholipase A2 (PLA2). The following applies: concentration not given here.

For assay [3], the target named is T1, Phospholipase A2, membrane associated (Homo sapiens). The experiment in a line: Tested for the inhibition of human synovial fluid phospholipase A2.

Chain of Phospholipase A2, major isoenzyme (Sus scrofa) (P00592 23-146 limits assumed): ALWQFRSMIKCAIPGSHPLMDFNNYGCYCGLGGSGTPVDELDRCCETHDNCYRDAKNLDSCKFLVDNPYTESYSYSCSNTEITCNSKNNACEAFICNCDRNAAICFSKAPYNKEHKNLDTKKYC

Regarding `CCCCCCCCCCS(=O)(=O)NC(CCCCCC)COP(=O)(O)OCCO` (stereo not drawn), the inhibition (usually how much of the control response was suppressed) was determined as 43% in assay [1] and 66% in assay [2].
For the compound `CCCCCCCCOC[C@H](COP(=O)(O)OCCN)OP(=O)(O)CCCCCCC`, the X1(50) (mole fraction) in assay [3] turned out to be 0.025.
